Measurements published in patent publication US11453640B2, “Small molecules for disrupting the super elongation complex and inhibiting transcription elongation for cancer therapy” (NORTHWESTERN UNIVERSITY, priority 2018, dated 2022).

How the values were obtained:
[1] = molecular target: T1, AFF4-CCNT1 interaction (GST-CCNT1 AA 1-300 and biotin-AFF4 peptide AA 32-67) (Homo sapiens, UniProt O60563); experiment: AlphaLISA assay of the AFF4-CCNT1 interaction (Alpha Screen); format: binding
T1 construct: Recombinant GST-CCNT1 (1-300), which was purified by Glutathione Superflow Agarose from Rosetta cells; VCPBIO (peptide synthesis) Addgene P#432; host or cells: Rosetta cells
From the text: FIG. 1. Peptidomimetic identification of disruptors of the AFF4-CCNT1 interaction within the Super Elongation Complex. (A) Schematic for the identification of small molecule inhibitors of the AFF4-CCNT1 interaction using in silico high-throughput screening. Compounds from the ZINC database were docked with the AFF4-CCNT1 structure (4IMY) using a three-tier glide-docking algorithm, which led to 40 candidates. Residues forming the deep binding pocket of CCNT1 are labeled orange and residues of the AFF4 peptide are labeled red. (B) Validation screening identified KL-1 as a potential SEC disruptor using AlphaLISA screening. GST-CCNT1 (AA 1-300) and biotin-labeled AFF4 peptide (AA 32-67) were used to measure the AFF4-CCNT1 interaction with the AlphaLISA assay. (C) Similarity search for KL-1-like molecules identified KL-2. The peptidomimetic potential of KL-1 and KL-2 can be seen by overlaying them with the AFF4 peptide LFAEP structure. (D) Dose-dependent inhibition of KL-1 and KL-2 on AFF4-CCNT1 interaction. The Ki constants of both compounds were measured with the AlphaLISA assays. (E) Treatment of HEK293T cells with KL-1 and KL-2 results in reduced protein levels of SEC components AFF1 and AFF4 but not CDK9 or CCNT1. HEK293T cells were treated with 20 μM of SEC inhibitors KL-1 or KL-2 for 6 hr. 5 μl, 10 and 20 μl cell lysates were loaded and the protein levels of AFF1, AFF4, CCNT1, CDK9 and Tubulin (load control) were determined by western blotting.
FIG. 8, related to FIG. 1. Peptidomimetic identification of disruptors of the AFF4-CCNT1 interaction within the Super Elongation Complex. (A) Schematic of AlphaLISA assay of the AFF4-CCNT1 interaction. Anti-GST AlphaLISA acceptor beads and AlphaScreen streptavidin donor beads (Perkin Elmer) were used to detect the interaction of GST-CCNT1 (AA1-300) and biotin-AFF4 (AA32-67). (B-C) Optimization of the AlphaLISA assay with various biotin-AFF4 peptide and GST-CCNT1 concentrations. No CCNT1 (B) and mutant AFF4 (C) were used as negative controls. Data are represented as Mean+/−SD. (D) Scheme for chemical synthesis of SEC inhibitors KL-1 and KL-2. Reagents and conditions: a. LDA, THF, −78° C., 15 min., then diethyl oxalate, −78° C. to room temperature. b. NaOH, THF/H2O, room temperature, 15 min. c. EEDQ, 5-chloro-2-methylaniline, THF, room temperature, 24 hr. […] 293T cells were treated with 20 μM of KL-1 or KL-2 for 6 hr, and the protein levels of BRD2, BRD4, Pol II (RPB1), SPT5, MED26, MYC, HSP90 (load control) and Tubulin (load control) were measured by western blotting. (F) Treatment of HCT-116 cells with KL-1 and KL-2 reduced protein levels of SEC components AFF1 and AFF4 but not CDK9 or CCNT1. HCT-116 cells were treated with 20 μM of KL-1 or KL-2 for 6 hr, and the protein levels of AFF1, AFF4, CCNT1, CDK9 and Tubulin (load control) were determined by western blotting. (G-H) Treating cells with KL-1 and KL-2 results in reduced levels of AFF 1 and AFF4. FLAG-AFF1 (G) and FLAG-AFF4 (H) were expressed under the Tet-inducible promoter in HEK293T cells. Cells were treated with 20 μM of the indicated inhibitors for 6 hr for western blotting. […] RNA-seq was performed in HEK293T cells treated for 12 hr with 20 μM of the indicated inhibitors. The log2CPM (counts per million) of the SEC subunits were calculated with HTseq. KL-1 and KL-2 had no significant effects on CCNT1, CDK9 and AFF1 expression, but modest increases in the mRNA levels of AFF4 and ELL2 were observed (n=3). Unpaired two-way ANOVA was used for the statistical testes. **,p<0.05, ***,p<0.001.
To test if candidate compounds can disrupt the AFF4-CCNT1 interaction in vitro, we established and optimized a bead-based AlphaLISA assay with recombinant CCNT1 (1-300) protein and synthesized Biotin-AFF4 peptides (AA 32-67) (FIGS. 8A, 8B and 8C).
AlphaLISA Assay. The interaction of CCNT1-AFF4 was measured by Perkin Elmer's bead-based AlphaLISA assays. […]

[2] = Toxicity test in mice (body weight, sickness); format: in vivo; conditions: 5 doses of 10 mg/kg, monitored 35 days
Description: FIG. 14, related to FIG. 7. SEC disruptors delay tumor progression and improve survival of MDA231-LM2 tumor mice. (A) KL-1 and KL-2 inhibit the colony formation of MDA231-LM2 cells in vitro. 5×10^3 MDA231-LM2 cells were seeded in 6-well plates and treated with KL-1 or KL-2 at the indicated doses for 5 days. Crystal violet staining was performed to stain the colonies. (B) KL-1 and KL-2 induce apoptosis in MDA231-LM2 cells. Bar graph depiction of Annexin V positive MDA231-LM2 cells after 24 hr of KL-1 and KL-2 treatments at the indicated concentrations. Data are represented as Mean+/−SD. […] Each individual line indicates the weights of each mouse during toxicity test.

T1 sequence (O60563 1-300): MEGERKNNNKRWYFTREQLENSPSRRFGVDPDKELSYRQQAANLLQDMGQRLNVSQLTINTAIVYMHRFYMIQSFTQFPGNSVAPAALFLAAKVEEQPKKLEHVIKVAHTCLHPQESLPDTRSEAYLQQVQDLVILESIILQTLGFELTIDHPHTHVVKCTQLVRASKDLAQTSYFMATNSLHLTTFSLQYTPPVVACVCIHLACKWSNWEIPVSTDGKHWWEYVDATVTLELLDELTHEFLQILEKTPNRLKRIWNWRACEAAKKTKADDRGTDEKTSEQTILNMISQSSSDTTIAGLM

Row | IC50 [1] [µM] | Structure (SMILES) | also measured
1 | – | Cc1ccc(Cl)cc1NC(=O)C(=O)CC(=O)c1ccc(F)cc1 [KL-2, N-(5-chloro-2-methylphenyl)-4-oxo-(4-fluorophenyl)-2-oxobutanamide] | Ki ([1]; AlphaLISA, IC50 converted to Ki with the Cheng and Prusoff equation, read-out: Ki, inhibition of the AFF4-CCNT1 interaction): 1.5 µM; weight loss in mice ([2]; intraperitoneal): does not result in significant weight loss; sign of sickness in mice [2]: no obvious sign of sickness was observed
2 | ≥ 30 | Cc1nccnc1NC(=O)C(=O)CC(=O)c1ccc(F)cc1 [NUCC-0201596] | –
3 | ≥ 30 | O=C(CC(=O)c1ccc(F)cc1)C(=O)NCc1ccccc1 [NUCC-0201688] | –
4 | ≥ 30 | O=C(CC(=O)c1ccc(F)cc1)C(=O)NCc1ccncc1 [NUCC-0201689] | –
5 | 9.88 ± 0.6 | O=C(CC(=O)c1ccc(F)cc1)C(=O)Nc1nn[nH]n1 [NUCC-0201690] | –
6 | ≥ 60 | Cc1nc(NC(=O)C(=O)CC(=O)c2ccc(F)cc2)no1 [NUCC-0201691] | –
7 | 20.8 ± 4.2 | O=C(CC(=O)c1ccc(F)cc1)C(=O)Nc1nccs1 [NUCC-0201692] | –
8 | 7.42 ± 0.26 | O=C(CC(=O)c1ccc(F)cc1)C(=O)Nc1cncc(F)c1 [NUCC-0201693] | –
9 | 17.4 | COc1cccc(C(=O)CC(=O)C(=O)Nc2ccc(F)c(F)c2)c1 [NUCC-0201921] | –
10 | 14.3 | COc1cc(NC(=O)C(=O)CC(=O)c2cccc(OC)c2)cc(OC)c1 [NUCC-0201922] | –
11 | 12.8 | COc1cccc(C(=O)CC(=O)C(=O)Nc2ccc(Cl)c(Cl)c2)c1 [NUCC-0201923] | –
12 | 20 | COc1cccc(C(=O)CC(=O)C(=O)Nc2ccc(F)cc2)c1 [NUCC-0201924] | –
13 | 14.4 | COc1cccc(C(=O)CC(=O)C(=O)Nc2cccc(Cl)c2)c1 [NUCC-0201925] | –
14 | 15.2 ± 8 | COc1cccc(C(=O)CC(=O)C(=O)Nc2cc(C(=O)O)ccc2C)c1 [NUCC-0201926] | –
15 | 17.9 ± 2.4 | COc1cccc(C(=O)CC(=O)C(=O)Nc2cncnc2C)c1 [NUCC-0201927] | –
16 | 15.7 | COc1cccc(C(=O)CC(=O)C(=O)Nc2cccc(OC)c2C)c1 [NUCC-0201929] | –
17 | 21.3 ± 3.1 | COc1cccc(NC(=O)C(=O)CC(=O)c2ccc(F)cc2)c1C [NUCC-0202067] | –
18 | 11.4 ± 0.9 | O=C(CC(=O)c1ccc(F)cc1)C(=O)Nc1cccc(Cl)c1 [NUCC-0202068] | –
19 | ≥ 60 | O=C(CC(=O)c1ccc(F)cc1)C(=O)NC1CCCC1 [NUCC-0202069] | –
20 | 14.8 ± 2 | Cc1ccccc1NC(=O)C(=O)CC(=O)c1ccc(F)cc1 [NUCC-0202092] | –
21 | 30.6 ± 1.4 | Cc1ccc(Cl)cc1NC(=O)[C@@H](O)CC(=O)c1ccc(F)cc1 [NUCC-0202170] | –
22 | – | CN1CC[C@H](c2c(O)cc(O)c3c(=O)cc(-c4ccccc4Cl)oc23)[C@H](O)C1 [flavopiridol, reference compound] | disruption of the AFF4-CCNT1 interaction ([1]; tested at 20 μM): neither the pan-CDK9 kinase inhibitor flavopiridol nor the BET domain inhibitors disrupted the AFF4-CCNT1 interaction
